Experimental data published in patent US20060110456A1, “Method for biocidal and/or biostatic treatment and compositions therefor” (NATIONAL UNIVERSITY OF SINGAPORE, priority 2004, published 2006).
≈ marks a conversion by molar mass, not a printed value. Entries after “also recorded” stand apart in the source; their conditions may differ. Structures can show the parent of a compound that is named as a salt.

Key:
[1] = system: marine bacteria (ten strains); assay: Bio-adhesion assay (crystal violet microplate); type: cell-based, marine bacteria isolated from Singapore fouling communities; conditions: for Effect on bacterial adhesion: polystyrene or tissue culture surface as named in the value; for Effect of drugs on adhesion of bacteria: 50 μl of 125 μg ml^−1 drug + 200 μl bacteria, 2 hours
Method: The effect of pharmaceuticals on bacterial adhesion was analyzed using a modified microplate method adapted from Shea and Williamson (1990). This method consists of staining the attached bacteria with crystal violet, releasing the stain with sodium desoxycholate, and measuring the resulting absorbance of the crystal violet. The absorbance is proportional to the degree of bacterial adhesion to the surface.
Ten strains of bacteria (strain numbers 1, 4, 9, 14, 18, 20, 27, 28, 29 and 30) were chosen for this study. Flat bottom non-tissue culture treated polystyrene (hydrophobic, Falcon #351172) (referred to as polystyrene) and flat bottom tissue culture treated polystyrene (hydrophilic, Falcon #353072) microplates were used in the analyses. These two types of plates were chosen because they were sterile and offered two different kinds of surfaces to determine the adhesion preferences of the bacteria. Each test was done in duplicate. For the control and blank wells, 50 μl of sterile deionized water were added. For those wells that were to contain drugs, 50 μl of drugs at concentration of 125 μg ml^−1 were added. Then 200 μl of bacteria suspension in sterile seawater, whose absorbance had been adjusted to 0.6 at 600 nm using a spectrophotometer (Beckman), were added. Blanks contained 200 μl of sterile seawater.
The bacteria in suspension were allowed to attach for 2 hours at 28° C. Unattached cells were removed by pipetting out almost all trace of liquid and rinsed three times with 300 μl of sterile seawater each time. The attached cells were stained with 200 μl of crystal violet solution (0.1% w/v) in each well for 5 min. After removing the stain by pipetting, the wells were rinsed twice with 300 μl of sterile deionized water each time. Sodium desoxycholate (200 μl) solution (2% w/v) was then added to each well to extract the crystal violet from the stained cells for 10 min. The absorbance of the extracted solution was read at 590 nm using a microplate reader (Sunrise, Tecan, Switzerland).
The data were analyzed using T-test (Two-sample assuming unequal variances) to determine the significance of the absorbance values of each bacterial strain versus the blanks to determine whether there was adhesion, i.e. increase in absorbance. Each drug effect on adhesion was analyzed by comparing the absorbance of each bacterial strain minus the control blank versus bacteria in presence of drug minus the drug control. When the data is significant, there are bacterial cells attached to the surface in the control but in the presence of drugs, there is no attachment.

[2] = in words; cited from earlier work
[3] = system: Balanus amphitrite cyprids; assay: whole plant or invertebrate; conditions: for IC50: Amphibalanus amphitrite, 24 h, read-out: ED50; for Prevention of settlement of barnacle cyprids: crude rank, best (1) to worst (8); for Effect on settlement of cyprids: in words
Method: Pharmaceuticals from the respective manufacturers were treated in the following way. A pill containing a known amount of active ingredient (as stated in product information) was ground in a mortar and pestle and a suspension of 2 mg ml^−1 generated in de-ionized water. This stock solution is stored at −20° C. in 4 ml amber screw cap vials. For the bioassays, 250 ul of stock solution is added to 10 ml of 1 um filtered seawater. This suspension was then sonicated for 10 minutes. Serial dilutions of this 50 μg ml^−1 seawater solution, or suspension, with seawater was done to generate the required range of concentrations.
This method is now standard practice for many antifouling screening of novel compounds.
Barnacle larvae from field-collected adults were reared on an algal mixture of 1:2:2 v/v of Rhodomonas salina, Tetraselmis suecica and Chaetoceros muelleri at 25° C., at approximately 5×10^5 cells per ml density. On this regime, larvae metamorphose to cyprids in 5 days.
Test solutions were made up to twice the required final concentration. 1 ml of test solution was added into each well, and cyprids were transferred into each well in 1 ml of seawater. Assays were done in triplicate. After 24 hours, larvae that had attached and metamorphosed were enumerated and the result expressed as percentage settlement. Larvae not attached were scored as not settled.
The Therapeutic Ratio, or LC50/EC50, is a way of assessing the effectiveness of the compound in relation to its toxicity. […] LC50 and EC50 estimates and the therapeutic ratio should be considered as working values providing an estimation of potency, rather than as absolutes.

[4] = system: marine bacteria; assay: Growth assay (absorbance, 96-well plates); type: cell-based, marine bacteria isolated from Singapore fouling communities; conditions: 25 μg ml^−1
Method: The dried powder was re-suspended in sterile deionized water and made up to 2 mg ml^−1.
The same bacterial strains were used and cultured the same way as in disc inhibition assay. Cells were harvested by centrifugation at 300 rpm for 10 min. The supernatant was discarded and the pellet re-suspended using sterile seawater collected from St. John's island, Singapore. The concentration of bacterial cells was adjusted to an absorbance of approximately 0.6 using a spectrophotometer (Beckman DU530) at wavelength 600 nm.
The growth with response to the pharmaceuticals was assumed to be proportional to the absorbance of the bacteria. […] To each well 25 μl of each drug solution (concentration adjusted to 100 μg ml^−1) were pipetted into three wells followed by 10 μl of broth and 65 μl of sterile seawater. For wells that were to contain bacteria, 60 μl of sterile seawater was used instead. All wells used for growth studies were prepared in triplicate and inoculated with 5 μl of the bacterial suspension. Blanks consisting of the respective volumes of pharmaceutical with Marine Broth and distilled water, if needed, were prepared in triplicate and inoculated with 5 μl of sterile seawater.
The absorbance (A600) of each well was read in a plate reader (Sunrise Tecan Model F039300) immediately (time=0 hours) and after 1, 2, 3, 4, 20, 23 and 28 hours. Plates were incubated overnight inside a moistened airtight container.
Any changes in absorbance were plotted and compared with control. The mean absorbance (mean bac) from the bacteria was obtained by deducting the absorbance values of blank wells (containing seawater and broth only) from that for the control wells (containing bacteria in seawater and broth only). The absorbance arising from the drugs was obtained from the 0 hr reading for wells containing drugs and bacteria, minus the wells with drugs alone (mean “drug”). The growth assays were repeated three times.

[5] = strain 1 (Rhodovulum), hydrophobic surface (untreated polystyrene)
[6] = strain 4 (Bacillus), hydrophobic surface (untreated polystyrene)
[7] = strain 9 (Bacillus), hydrophobic surface (untreated polystyrene)
[8] = strain 27, hydrophobic surface (untreated polystyrene)

Cc1cc2c(s1)Nc1ccccc1N=C2N1CCN(C)CC1 [ZPX, olanzapine]
Effect on bacterial adhesion [1]: prevented biofilm formation for almost all strains in the polystyrene surface | Effect of drugs on adhesion of bacteria [1, 5]: *** (*** p < 0.005) | Effect of drugs on adhesion of bacteria [1, 6]: * (Significantly less adhesion observed: * p < 0.05) | Effect of drugs on adhesion of bacteria [1, 7]: *** (*** p < 0.005) | Effect of drugs on adhesion of bacteria ([1]; strain 14 (Vibrio), hydrophobic surface (untreated polystyrene)): ** (** p < 0.01) | Effect of drugs on adhesion of bacteria ([1]; strain 18 (Microbacterium), hydrophobic surface (untreated polystyrene)): * (Significantly less adhesion observed: * p < 0.05) | Effect of drugs on adhesion of bacteria ([1]; strain 20, hydrophobic surface (untreated polystyrene)): *** (*** p < 0.005) | Effect of drugs on adhesion of bacteria [1, 8]: *** (*** p < 0.005) | Effect of drugs on adhesion of bacteria ([1]; strain 28, hydrophobic surface (untreated polystyrene)): *** (*** p < 0.005) | Effect of drugs on adhesion of bacteria ([1]; strain 29, hydrophobic surface (untreated polystyrene)): * (Significantly less adhesion observed: * p < 0.05) | Effect of drugs on adhesion of bacteria ([1]; strain 30, hydrophilic surface (tissue culture treated polystyrene)): * (Significantly less adhesion observed: * p < 0.05) | Solubility [2]: practically insoluble in water | IC50 [3]: 0.00231 µg/mL (≈ 7.39 nM) | Prevention of settlement of barnacle cyprids [3]: 1 | Effect on settlement of cyprids [3]: at concentrations less than 1 ug ml^−1, the cyprids were not killed but were not able to settle; also recorded: prevented the settlement of cyprids | Mortality of cyprids ([3]; settlement bioassay wells): not very different from the control

CN(C)C(=O)C(CCN1CCC(O)(c2ccc(Cl)cc2)CC1)(c1ccccc1)c1ccccc1 [IMD, Loperamide hydrochloride]
Effect on bacterial adhesion [1]: caused strain 1 to adhere to tissue culture surfaces | Effect of drugs on adhesion of bacteria ([1]; strain 1 (Rhodovulum), hydrophilic surface (tissue culture treated polystyrene)): *incr adhesion | Effect of drugs on adhesion of bacteria [1, 5]: * (Significantly less adhesion observed: * p < 0.05) | Effect of drugs on adhesion of bacteria ([1]; strain 14 (Vibrio), hydrophilic surface (tissue culture treated polystyrene)): * (Significantly less adhesion observed: * p < 0.05) | Solubility [2]: slightly soluble in water | IC50 [3]: > 5 µg/mL | Prevention of settlement of barnacle cyprids [3]: 8 | Effect on settlement of cyprids [3]: not effective against cyprids

CN1CCN(CCCN2c3ccccc3Sc3ccc(C(F)(F)F)cc32)CC1 [TFZ, Trifluoperazine hydrochloride]
Effect of drugs on adhesion of bacteria ([1]; strain 4 (Bacillus), hydrophilic surface (tissue culture treated polystyrene)): * (Significantly less adhesion observed: * p < 0.05) | Effect of drugs on adhesion of bacteria [1, 6]: *** (*** p < 0.005) | Effect of drugs on adhesion of bacteria [1, 7]: ** (** p < 0.01) | Effect of drugs on adhesion of bacteria ([1]; strain 18 (Microbacterium), hydrophilic surface (tissue culture treated polystyrene)): * (Significantly less adhesion observed: * p < 0.05) | Effect of drugs on adhesion of bacteria [1, 8]: *** (*** p < 0.005) | Number of strains with strongly inhibited growth ([4]; 25 strains of Table 5): 14 | Inhibition of bacterial growth ([4]; strain 1 (Rhodovulum)): 0 | Inhibition of bacterial growth ([4]; strain 2 (Erythrobacter)): 0 | Inhibition of bacterial growth ([4]; strain 3 (Erythrobacter)): +++ (+++ denotes little or no growth, p < 0.001) | Inhibition of bacterial growth ([4]; strain 4 (Bacillus)): +++ (+++ denotes little or no growth, p < 0.001) | Inhibition of bacterial growth ([4]; strain 6 (Vibrio)): + (+ denotes growth present but inhibited, p < 0.01) | Inhibition of bacterial growth ([4]; strain 7 (Vibrio)): + (+ denotes growth present but inhibited, p < 0.01) | Inhibition of bacterial growth ([4]; strain 8 (Bacillus)): + (+ denotes growth present but inhibited, p < 0.01) | Inhibition of bacterial growth ([4]; strain 9 (Bacillus)): +++ (+++ denotes little or no growth, p < 0.001) | Inhibition of bacterial growth ([4]; strain 10 (Halobacillus)): +++ (+++ denotes little or no growth, p < 0.001) | Inhibition of bacterial growth ([4]; strain 11 (Pseudomonas)): + (+ denotes growth present but inhibited, p < 0.01) | Inhibition of bacterial growth ([4]; strain 12 (Gordonia)): +++ (+++ denotes little or no growth, p < 0.001) | Inhibition of bacterial growth ([4]; strain 13 (Bacillus)): +++ (+++ denotes little or no growth, p < 0.001) | Inhibition of bacterial growth ([4]; strain 14 (Vibrio)): 0 | Inhibition of bacterial growth ([4]; strain 16 (Pseudoalteromonas)): 0 | Inhibition of bacterial growth ([4]; strain 17 (Gordonia)): +++ (+++ denotes little or no growth, p < 0.001) | Inhibition of bacterial growth ([4]; strain 18 (Microbacterium)): +++ (+++ denotes little or no growth, p < 0.001) | Inhibition of bacterial growth ([4]; strain 19 (Erythrobacter)): +++ (+++ denotes little or no growth, p < 0.001) | Inhibition of bacterial growth ([4]; strain 20): + (+ denotes growth present but inhibited, p < 0.01) | Inhibition of bacterial growth ([4]; strain 21): 0 | Inhibition of bacterial growth ([4]; strain 24): + (+ denotes growth present but inhibited, p < 0.01) | Inhibition of bacterial growth ([4]; strain 26): 0 | Inhibition of bacterial growth ([4]; strain 27): +++ (+++ denotes little or no growth, p < 0.001) | Inhibition of bacterial growth ([4]; strain 28): +++ (+++ denotes little or no growth, p < 0.001) | Inhibition of bacterial growth ([4]; strain 29): +++ (+++ denotes little or no growth, p < 0.001) | Inhibition of bacterial growth ([4]; strain 30): +++ (+++ denotes little or no growth, p < 0.001) | IC50 [3]: 0.0748 µg/mL | Prevention of settlement of barnacle cyprids [3]: 2
